This note sets out measurements from patent US20260285888A1, “HETEROCYCLIC COMPOUND AND USE THEREOF” (OTSUKA PHARMACEUTICAL CO., LTD., priority 2023, published 2026).

Where two headings read alike, the source gives them in different places.

The test system of one series is HL-60 cells. Put plainly: in vitro. The format is cell-based, human. The method, boiled down:
(§1)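 Cytotoxicity (%) from supernatant LDH activity after ~24 h treatment at 300 μmol/L final, normalised to no-treatment (0%) and lysis buffer (100%). Cells were PMA-differentiated (10 nM, ~72 h) HL-60 in 2% FBS medium; triplicate means.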

Series [1] can be described thus: Study for confirmation of conversion to brexpiprazole in a buffer (stability of the evaluation compounds). The format is physicochemical. Conditions: in buffer, average of duplicate; for Concentration of brexpiprazole formed: 60-minute reaction sample; for Concentration of evaluation compound decreased: decrease in 60-minute vs 0-minute reaction sample. A digest of the protocol:
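Compounds (final 1 μmol/L, from 100 μmol/L working solutions) incubated in buffer at 37° C. for 0 or 60 min, in duplicate, after 3 min pre-incubation of the reaction solution. Reactions stopped with acetonitrile/isopropanol (4:1) containing internal standards; compound and formed brexpiprazole quantified against 0.01–1 μmol/L calibration samples.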

The nature of a further series: in vitro. The format is cell-based, human. Conditions: human, 300 μmol/L, about 24 hours, PMA-differentiated HL-60 cells, LDH, no-treatment 0%, cell lysis buffer 100%, read-out: cytotoxicity (%) Evaluation compound results. A digest of the protocol:
as §1

Series [2] in a line: Dog irritation study (subcutaneous injection site, histopathological examination). Conditions: stated as reason for choice as positive control. The format is in vivo. The protocol: Male beagle dogs were purchased at the age of 5-7 months from Kitayama Labes Co., Ltd. and used in the experiment after acclimatization. The breeding environment was as follows: feeding: 250 g of solid feed once a day, water intake: unlimited, number of animals per cage: 1, temperature: 21-25° C., humidity: 50-70%, lighting time: 7:00-19:00. The test formulation was subcutaneously administered to dogs anesthetized with 25 mg/kg thiopental sodium using a plastic syringe at a dose of 10 mg/kg per formulation, changing the position on the back. […] The collected tissues were fixed in 10% neutral buffered formalin, and hematoxylin and eosin-stained specimens were prepared for histopathological examination.

Where [3] appears, read: human, differentiated hl-60 cells, 24 h, 300 µM.

Turning to `CCOP(=O)([O-])OC[N+]1(CCCCOc2ccc3ccc(=O)[nH]c3c2)CCN(c2cccc3sccc23)CC1` [EX 3, (4-(benzo[b]thiophen-4-yl)-1-(4-((2-oxo-1,2-dihydroquinolin-7-yl)oxy)butyl)piperazin-1-ium-1-yl)methyl ethyl phosphate], the “cytotoxicity (%) Evaluation compound results” value with HL-60 cells (300 μmol/L, about 24 hours, PMA-differentiated HL-60 cells, LDH, no-treatment 0%, cell lysis buffer 100%) is on record as −7%. Also, in series [1], the “Concentration of brexpiprazole formed” value amounted to 0 nM and the “Concentration of evaluation compound decreased” value was determined as 10 nM.
Turning to `COCCOCCOP(=O)([O-])OC[N+]1(CCCCOc2ccc3ccc(=O)[nH]c3c2)CCN(c2cccc3sccc23)CC1` [EX 7, (4-(benzo[b]thiophen-4-yl)-1-(4-((2-oxo-1,2-dihydroquinolin-7-yl)oxy)butyl)piperazin-1-ium-1-yl)methyl (2-(2-methoxyethoxy)ethyl)phosphate], the “cytotoxicity (%) Evaluation compound results” value in the series with HL-60 cells (setting [3]) is listed as −4%. Besides, in series [1], the “Concentration of brexpiprazole formed” value came to 0 nM and the “Concentration of evaluation compound decreased” value was -60 nM.
On to `CC(C)(C)C(=O)OP(=O)([O-])OC[N+]1(CCCCOc2ccc3ccc(=O)[nH]c3c2)CCN(c2cccc3sccc23)CC1` [EX 150, (4-(benzothiophen-4-yl)-1-(4-((2-oxo-1H-quinolin-7-yl)oxy)butyl)piperazin-1-ium-1-yl)methyl 2,2-dimethylpropanoyl phosphate], for which, in “in vitro” (differentiated hl-60 cells), the cytotoxicity at 24 h, 300 µM stood at 10%. Also, in series [1], the “Concentration of brexpiprazole formed” value is 0 nM and the “Concentration of evaluation compound decreased” value amounted to 110 nM.
Taken in the same sequence, the figures for `CCNP(=O)([O-])OC[N+]1(CCCCOc2ccc3ccc(=O)[nH]c3c2)CCN(c2cccc3sccc23)CC1` [EX 151, (4-(benzo[b]thiophen-4-yl)-1-(4-((2-oxo-1,2-dihydroquinolin-7-yl)oxy)butyl)piperazin-1-ium-1-yl)methyl ethylphosphoramidate] were -6%, 0 nM and -10 nM.
Take `COCCNP(=O)([O-])OC[N+]1(CCCCOc2ccc3ccc(=O)[nH]c3c2)CCN(c2cccc3sccc23)CC1` [EX 152, (4-(benzo[b]thiophen-4-yl)-1-(4-((2-oxo-1,2-dihydroquinolin-7-yl)oxy)butyl)piperazin-1-ium-1-yl)methyl (2-methoxyethyl)phosphoramidate]: the cytotoxicity at 24 h, 300 µM in the series “in vitro” (differentiated hl-60 cells) was -10%. In series [1], the “Concentration of brexpiprazole formed” value was 0 nM and the “Concentration of evaluation compound decreased” value amounted to 10 nM.
As for `COCCN(CCOC)P(=O)([O-])OC[N+]1(CCCCOc2ccc3ccc(=O)[nH]c3c2)CCN(c2cccc3sccc23)CC1` [EX 153, (4-(benzo[b]thiophen-4-yl)-1-(4-((2-oxo-1.2-dihydroquinolin-7-yl)oxy)butyl)piperazin-1-ium-1-yl)methyl bis(2-methoxyethyl)phosphoramidate], in the series “in vitro”, the cytotoxicity at 24 h, 300 µM was -7%. In series [1], the “Concentration of brexpiprazole formed” value turned out to be 0 nM and the “Concentration of evaluation compound decreased” value is -10 nM.
As for `CCOC(=O)CNP(=O)([O-])OC[N+]1(CCCCOc2ccc3ccc(=O)[nH]c3c2)CCN(c2cccc3sccc23)CC1` [EX 154, (4-(benzo[b]thiophen-4-yl)-1-(4-((2-oxo-1,2-dihydroquinolin-7-yl)oxy)butyl)piperazin-1-ium-1-yl)methyl (2-ethoxy-2-oxoethyl)phosphoramidate], the cytotoxicity at 24 h, 300 µM in “in vitro” (differentiated hl-60 cells) is 4%. In addition, in series [1], the “Concentration of brexpiprazole formed” value is 0 nM and the “Concentration of evaluation compound decreased” value worked out at 20 nM.
As for `CC(C)(C)OC(=O)CNP(=O)([O-])OC[N+]1(CCCCOc2ccc3ccc(=O)[nH]c3c2)CCN(c2cccc3sccc23)CC1` [EX 155, (4-(benzo[b]thiophen-4-yl)-1-(4-((2-oxo-1,2-dihydroquinolin-7-yl)oxy)butyl)piperazin-1-ium-1-yl)methyl (2-(tert-butoxy)-2-oxoethyl)phosphoramidate], the cytotoxicity at 24 h, 300 µM in “in vitro” (differentiated hl-60 cells) is -3%. Further, in series [1], the “Concentration of brexpiprazole formed” value turned out to be 0 nM and the “Concentration of evaluation compound decreased” value worked out at 160 nM.
Consider `CCOC(=O)[C@H](C)NP(=O)([O-])OC[N+]1(CCCCOc2ccc3ccc(=O)[nH]c3c2)CCN(c2cccc3sccc23)CC1` [EX 156, (4-(benzo[b]thiophen-4-yl)-1-(4-((2-oxo-1,2-dihydroquinolin-7-yl)oxy)butyl)piperazin-1-ium-1-yl)methyl (S)-(1-ethoxy-1-oxopropan-2-yl)phosphoramidate], for which the cytotoxicity at 24 h, 300 µM in the series “in vitro” (differentiated hl-60 cells) is -9%. Moreover, in series [1], the “Concentration of brexpiprazole formed” value worked out at 0 nM and the “Concentration of evaluation compound decreased” value amounted to 170 nM.
As for `C[C@H](NP(=O)([O-])OC[N+]1(CCCCOc2ccc3ccc(=O)[nH]c3c2)CCN(c2cccc3sccc23)CC1)C(=O)OC(C)(C)C` [EX 157, (4-(benzo[b]thiophen-4-yl)-1-(4-((2-oxo-1,2-dihydroquinolin-7-yl)oxy)butyl)piperazin-1-ium-1-yl)methyl (S)-(1-(tert-butoxy)-1-oxopropan-2-yl)phosphoramidate], the cytotoxicity at 24 h, 300 µM in the series “in vitro” (differentiated hl-60 cells) is -4%. Besides, in series [1], the “Concentration of brexpiprazole formed” value is 0 nM and the “Concentration of evaluation compound decreased” value stood at 80 nM.
On to `C[C@H](NP(=O)([O-])OC[N+]1(CCCCOc2ccc3ccc(=O)[nH]c3c2)CCN(c2cccc3sccc23)CC1)C(N)=O` [EX 158, (4-(benzo[b]thiophen-4-yl)-1-(4-((2-oxo-1,2-dihydroquinolin-7-yl)oxy)butyl)piperazin-1-ium-1-yl)methyl (S)-(1-amino-1-oxopropan-2-yl)phosphoramidate], for which the cytotoxicity at 24 h, 300 µM in the series “in vitro” (differentiated hl-60 cells) was -3%. In series [1], the “Concentration of brexpiprazole formed” value amounted to 0 nM and the “Concentration of evaluation compound decreased” value is 70 nM.
Turning to `CC(C)OC(=O)[C@H](C)NP(=O)([O-])OC[N+]1(CCCCOc2ccc3ccc(=O)[nH]c3c2)CCN(c2cccc3sccc23)CC1` [EX 159, (4-(benzo[b]thiophen-4-yl)-1-(4-((2-oxo-1,2-dihydroquinolin-7-yl)oxy)butyl)piperazin-1-ium-1-yl)methyl (S)-(1-isopropoxy-1-oxopropan-2-yl)phosphoramidate], the cytotoxicity at 24 h, 300 µM in “in vitro” (differentiated hl-60 cells) is -1%. In addition, in series [1], the “Concentration of brexpiprazole formed” value came to 0 nM and the “Concentration of evaluation compound decreased” value came to 60 nM.
With `O=C(OCOP(=O)([O-])OC[N+]1(CCCCOc2ccc3ccc(=O)[nH]c3c2)CCN(c2cccc3sccc23)CC1)N1CCOCC1` [EX 160, (4-(benzo[b]thiophen-4-yl)-1-(4-((2-oxo-1,2-dihydroquinolin-7-yl)oxy)butyl)piperazin-1-ium-1-yl)methyl (((morpholine-4-carbonyl)oxy)methyl) phosphate], the cytotoxicity at 24 h, 300 µM in the series “in vitro” (differentiated hl-60 cells) turned out to be 9%. Moreover, in series [1], the “Concentration of brexpiprazole formed” value stood at 0 nM and the “Concentration of evaluation compound decreased” value was -10 nM.
Take `CCCCCC(=O)OCn1c(=O)ccc2ccc(OCCCCN3CCN(c4cccc5sccc45)CC3)cc21` [Reference Example 3 compound, (7-(4-(4-(benzo[b]thiophen-4-yl)piperazin-1-yl)butoxy)-2-oxoquinolin-1(2H)-yl)methyl hexanoate]: the “irritation when subcutaneously administered to dogs” value in series [2] was “showed irritation”.
Turning to `O=C(OC[N+]1(CCCCOc2ccc3ccc(=O)[nH]c3c2)CCN(c2cccc3sccc23)CC1)N1CCCCC1` [Reference Example 4 compound, reference compound], in the series on HL-60 cells (300 μmol/L, about 24 hours, HL-60 cells), the “cytotoxicity compared with the controls (in words)” value is on record as “stronger cytotoxicity than that of the Reference Example 3 compound”.
For the molecule “(4-(benzo[b]thiophen-4-yl)-1-(4-(2-oxo-1,2-dihydroquinolin-7-yl)oxy)butyl)piperazin-1-ium-1-yl)methyl (5-bromopentyl) phosphate [EX 114]”, the “cytotoxicity (%) Evaluation compound results” value in the series with HL-60 cells (setting [3]) is on record as 14%.
Turning to “(4-(benzo[b]thiophen-4-yl)-1-(4-((2-oxo-1,2-dihydroquinolin-7-yl)oxy)butyl)piperazin-1-ium-1-yl)methyl(2-(2-butoxyethoxy)ethyl) phosphate [EX 99]”, in the series on HL-60 cells (setting [3]), the “cytotoxicity (%) Evaluation compound results” value is −6%. Besides, in series [1], the “Concentration of brexpiprazole formed” value came to 0 nM and the “Concentration of evaluation compound decreased” value was 0 nM.
As for “(4-(benzo[b]thiophen-4-yl)-1-((4-((2-oxo-1,2-dihydroquinolin-7-yl)oxy)butyl)piperazin-1-ium-1-yl)methyl hydrogen phosphate [EX 1]”, in the series on HL-60 cells (setting [3]), the “cytotoxicity (%) Evaluation compound results” value is −7%. In addition, in series [1], the “Concentration of brexpiprazole formed” value was found to be 0 nM and the “Concentration of evaluation compound decreased” value amounted to 0 nM.
